Reference: publication PMC3823594, “Conformational Changes Underlying Pore Dilation in the Cytoplasmic Domain of Mammalian Inward Rectifier K^+ Channels” (PLoS ONE, 2013)
Numbering of substitutions follows the chain as printed.

Columns and labels:
Kir3.2 WT = experiment: Inside-out patch clamp recording of channel activity; format: cell-based, mouse; conditions: Kir3.2 WT in HEK293T inside-out patches, −100 mV
Method: (§1) The Kir3.2d and m2R subcloned into pcDNA3 (Invitrogen) were transfected into HEK293T cells using the Lipofectamine Plus reagent (Invitrogen, Carlsbad, CA). Single-channel activity was recorded in a cell-attached configuration at a holding potential of -100 mV using a patch-clamp amplifier (Axopatch 200B; Axon Instruments). The current traces were low-pass filtered at 1 kHz and digitized at 10 kHz. The glass pipettes had resistances of 2.5–3.5 MΩ when filled with the pipette solution, which contained 135 mM KCl, 1 mM CaCl2, 1.6 mM MgCl2, 5 mM HEPES, and 5 μM ACh; the bath solution was a Tyrode solution. A 50% crossing criterion for the current amplitude was used to judge the single-channel activity.
(§2) Inside-out patch clamp experiments were performed by the excision of patch membranes in the cell-attached configuration. The bath solution consisted of 135 mM KCl, 5 mM EGTA, 2 mM MgCl2 and 5 mM HEPES. The holding potential was -100 mV. We perfused ATP at the intracellular side to produce PIP2 at the inner leaflet of the plasma membrane, GTP (3 μM) to produce Gβγ mildly and GTPγS (10 μM) to generate Gβγ maximally. The pH of all solutions was adjusted to 7.35 with KOH prior to the experiments. All experiments were conducted at ambient temperature (20–25°C).
Figure 5 Inside-out patch recordings of Kir3.2 WT and mutant channels. […]

Kir3.2 M313T = target: T1, Kir3.2 M313T (Mus musculus, UniProt P48542, I313T); experiment: as above; format: cell-based; conditions: Kir3.2 M313T in HEK293T inside-out patches, −100 mV
T1 sequence (P48542 19-425 I313T): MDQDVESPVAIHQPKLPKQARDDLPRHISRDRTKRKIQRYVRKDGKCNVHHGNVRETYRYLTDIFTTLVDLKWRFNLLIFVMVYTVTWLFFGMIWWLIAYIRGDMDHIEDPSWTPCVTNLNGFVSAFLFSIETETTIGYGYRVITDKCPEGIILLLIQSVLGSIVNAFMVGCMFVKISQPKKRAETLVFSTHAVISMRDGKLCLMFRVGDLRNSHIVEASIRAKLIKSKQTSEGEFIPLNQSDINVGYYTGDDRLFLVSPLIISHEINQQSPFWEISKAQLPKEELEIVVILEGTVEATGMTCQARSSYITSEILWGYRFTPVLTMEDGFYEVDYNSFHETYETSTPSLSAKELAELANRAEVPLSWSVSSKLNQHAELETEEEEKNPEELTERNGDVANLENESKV
T1 sequence (P06199 1-466 partner): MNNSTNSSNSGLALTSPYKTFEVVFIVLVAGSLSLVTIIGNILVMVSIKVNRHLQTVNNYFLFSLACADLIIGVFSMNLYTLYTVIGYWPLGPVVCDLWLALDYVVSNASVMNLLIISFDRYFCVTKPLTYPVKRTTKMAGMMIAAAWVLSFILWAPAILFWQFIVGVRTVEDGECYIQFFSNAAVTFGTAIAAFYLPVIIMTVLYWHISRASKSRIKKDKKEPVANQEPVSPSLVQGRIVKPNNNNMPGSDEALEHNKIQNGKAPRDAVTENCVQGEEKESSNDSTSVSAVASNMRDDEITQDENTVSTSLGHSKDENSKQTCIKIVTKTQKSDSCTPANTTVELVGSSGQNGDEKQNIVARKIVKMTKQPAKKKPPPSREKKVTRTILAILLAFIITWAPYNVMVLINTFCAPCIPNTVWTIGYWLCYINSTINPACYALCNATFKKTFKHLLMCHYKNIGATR
Method: as §1, §2
(§3) Figure 5 Inside-out patch recordings of Kir3.2 WT and mutant channels. Inside-out membrane patches were obtained from HEK293T cells expressing either Kir3.2 WT (A), M313G (B) or M313T mutant (C) channels. Experiments were conducted in symmetric 135 mM K^+ solutions with a holding potential of -100 mV. Perfusion of ATP was for the generation of PIP2 at the inner leaflet of the excised patch membranes. The protocol used for perfusion of substances to the intracellular side of the patch membrane is indicated by bars above the current traces.

[1] = target: cytoplasmic domain (CPD) of the mouse Kir3.2 E236R mutant (mouse); experiment: crystal structure; sitting drops; reservoir 15% (v/v) ethanol, 0.1 M HEPES-NaOH (pH 7.5), 0.2 M MgCl2; 4°C; space group P4212; 2.0 Å
[2] = target: cytoplasmic domain (CPD) of the mouse Kir3.2 E236R mutant (mouse); experiment: not stated; purified CPD E236R in solution; the method for the oligomeric state is not told
Kir3.2 M313G = target: T2, Kir3.2 M313G (Mus musculus, UniProt P48542, I313G); experiment: Inside-out patch clamp recording of channel activity; format: cell-based; conditions: Kir3.2 M313G in HEK293T inside-out patches; ATP perfused at 2 mM; −100 mV
T2 sequence (P48542 19-425 I313G): T1 sequence (P48542 19-425 I313T) with T295G
T2 sequence (P06199 1-466 partner): T1 sequence (P06199 1-466 partner)
Method: as §1, §2, §3

Nc1nc2c(ncn2[C@@H]2O[C@H](COP(=O)(O)OP(=O)(O)OP(=O)(O)O)[C@@H](O)[C@H]2O)c(=O)[nH]1 [GTP]
Channel activity as % of the response evoked by GTPγS (Kir3.2 WT; GTP (3 μM)): 4 ± 2%
Channel activity as % of the response evoked by GTPγS (Kir3.2 M313T; GTP (3 μM)): about 11 ± 2%

cytoplasmic domain (CPD) of the mouse Kir3.2 E236R mutant (domain or fragment)
stoichiometry N [1]: 4
stoichiometry N [2]: 4

Nc1ncnc2c1ncn2[C@@H]1O[C@H](COP(=O)(O)OP(=O)(O)OP(=O)(O)O)[C@@H](O)[C@H]1O [ATP]
Channel activity as % of that evoked by 10 μM GTPγS (Kir3.2 WT; ATP perfused at 2 mM): 15 ± 4%
Sensitivity to ATP perfusion (Kir3.2 M313T; in contrast to M313G): less sensitive
Channel activity as % of that evoked by 10 μM GTPγS (Kir3.2 M313G): 59 ± 6%
